US10168342B2, “Lipid probes and uses thereof” (THE SCRIPPS RESEARCH INSTITUTE, priority 2015, dated 2019)
Read-outs that look alike come from different tables or passages of the source.

Columns and labels:
[1] = target: AEA-DA lipid probe targets in Neuro2a cells (Mus musculus, UniProt Q9R1P3)
[2] = target: T1, AEA-DA lipid probe targets in Neuro2a cells (Mus musculus, UniProt Q61009)
T1 sequence (Q61009 1-509): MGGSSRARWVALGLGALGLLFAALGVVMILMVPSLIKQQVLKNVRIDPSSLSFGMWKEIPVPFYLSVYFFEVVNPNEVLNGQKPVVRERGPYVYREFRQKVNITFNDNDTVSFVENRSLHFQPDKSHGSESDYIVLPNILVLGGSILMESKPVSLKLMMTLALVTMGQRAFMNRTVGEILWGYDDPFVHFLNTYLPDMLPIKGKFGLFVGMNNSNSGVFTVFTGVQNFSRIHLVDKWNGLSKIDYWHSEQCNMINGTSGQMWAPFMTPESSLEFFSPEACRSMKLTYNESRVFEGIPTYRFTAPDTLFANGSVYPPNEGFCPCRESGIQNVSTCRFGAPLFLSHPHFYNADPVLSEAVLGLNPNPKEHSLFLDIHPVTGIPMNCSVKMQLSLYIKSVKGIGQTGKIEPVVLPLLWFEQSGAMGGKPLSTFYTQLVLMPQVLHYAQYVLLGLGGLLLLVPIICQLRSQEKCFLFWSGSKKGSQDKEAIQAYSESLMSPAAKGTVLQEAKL

[3] = target: T2, AEA-DA lipid probe targets in Neuro2a cells (Mus musculus, UniProt O88455)
T2 sequence (O88455 1-471): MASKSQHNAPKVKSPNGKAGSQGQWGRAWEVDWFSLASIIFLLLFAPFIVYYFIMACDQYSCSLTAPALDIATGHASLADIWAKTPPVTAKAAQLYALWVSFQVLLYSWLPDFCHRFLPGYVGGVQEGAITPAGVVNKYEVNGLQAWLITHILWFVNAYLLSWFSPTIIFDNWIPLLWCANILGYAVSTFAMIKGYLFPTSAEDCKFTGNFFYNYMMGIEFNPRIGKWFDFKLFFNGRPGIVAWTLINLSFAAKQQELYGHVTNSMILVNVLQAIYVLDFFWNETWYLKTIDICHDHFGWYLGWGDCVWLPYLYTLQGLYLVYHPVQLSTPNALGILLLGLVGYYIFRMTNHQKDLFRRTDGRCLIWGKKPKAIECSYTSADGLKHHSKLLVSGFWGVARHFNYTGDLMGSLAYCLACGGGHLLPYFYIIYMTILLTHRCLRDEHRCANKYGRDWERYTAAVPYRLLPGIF

[4] = target: T3, AEA-DA lipid probe targets in Neuro2a cells (Mus musculus, UniProt Q9ES97)
T3 sequence (Q9ES97 1-964): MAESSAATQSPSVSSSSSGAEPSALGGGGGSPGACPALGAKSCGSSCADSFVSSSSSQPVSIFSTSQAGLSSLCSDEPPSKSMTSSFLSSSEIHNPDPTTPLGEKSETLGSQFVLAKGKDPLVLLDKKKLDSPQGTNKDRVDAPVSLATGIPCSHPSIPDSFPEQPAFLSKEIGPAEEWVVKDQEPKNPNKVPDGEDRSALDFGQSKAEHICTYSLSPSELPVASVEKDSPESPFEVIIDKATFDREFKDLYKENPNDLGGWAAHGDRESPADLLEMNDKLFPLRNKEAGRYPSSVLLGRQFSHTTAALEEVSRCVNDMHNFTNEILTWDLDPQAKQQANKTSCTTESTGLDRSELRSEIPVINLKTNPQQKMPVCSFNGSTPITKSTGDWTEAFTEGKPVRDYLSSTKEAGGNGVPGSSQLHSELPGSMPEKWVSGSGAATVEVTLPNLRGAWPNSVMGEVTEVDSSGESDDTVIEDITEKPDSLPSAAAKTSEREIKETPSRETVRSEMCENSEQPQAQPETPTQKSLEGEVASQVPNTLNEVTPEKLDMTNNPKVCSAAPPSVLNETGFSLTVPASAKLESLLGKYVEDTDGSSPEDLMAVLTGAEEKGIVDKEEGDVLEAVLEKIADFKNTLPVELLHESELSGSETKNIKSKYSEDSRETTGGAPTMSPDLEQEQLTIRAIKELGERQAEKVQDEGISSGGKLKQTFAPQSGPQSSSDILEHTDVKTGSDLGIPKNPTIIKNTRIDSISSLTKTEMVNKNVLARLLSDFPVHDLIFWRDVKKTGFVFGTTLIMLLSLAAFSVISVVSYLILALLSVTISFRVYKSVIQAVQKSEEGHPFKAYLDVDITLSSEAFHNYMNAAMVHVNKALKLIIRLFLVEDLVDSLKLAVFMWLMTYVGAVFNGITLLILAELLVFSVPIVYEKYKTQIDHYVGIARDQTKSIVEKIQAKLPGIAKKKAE

[5] = target: AEA-DA lipid probe targets in Neuro2a cells (Mus musculus, UniProt P09055)
AEA-DA lipid probe targets in Neuro2a cells (Mus musculus, UniProt P09055), sequence (P09055 21-798): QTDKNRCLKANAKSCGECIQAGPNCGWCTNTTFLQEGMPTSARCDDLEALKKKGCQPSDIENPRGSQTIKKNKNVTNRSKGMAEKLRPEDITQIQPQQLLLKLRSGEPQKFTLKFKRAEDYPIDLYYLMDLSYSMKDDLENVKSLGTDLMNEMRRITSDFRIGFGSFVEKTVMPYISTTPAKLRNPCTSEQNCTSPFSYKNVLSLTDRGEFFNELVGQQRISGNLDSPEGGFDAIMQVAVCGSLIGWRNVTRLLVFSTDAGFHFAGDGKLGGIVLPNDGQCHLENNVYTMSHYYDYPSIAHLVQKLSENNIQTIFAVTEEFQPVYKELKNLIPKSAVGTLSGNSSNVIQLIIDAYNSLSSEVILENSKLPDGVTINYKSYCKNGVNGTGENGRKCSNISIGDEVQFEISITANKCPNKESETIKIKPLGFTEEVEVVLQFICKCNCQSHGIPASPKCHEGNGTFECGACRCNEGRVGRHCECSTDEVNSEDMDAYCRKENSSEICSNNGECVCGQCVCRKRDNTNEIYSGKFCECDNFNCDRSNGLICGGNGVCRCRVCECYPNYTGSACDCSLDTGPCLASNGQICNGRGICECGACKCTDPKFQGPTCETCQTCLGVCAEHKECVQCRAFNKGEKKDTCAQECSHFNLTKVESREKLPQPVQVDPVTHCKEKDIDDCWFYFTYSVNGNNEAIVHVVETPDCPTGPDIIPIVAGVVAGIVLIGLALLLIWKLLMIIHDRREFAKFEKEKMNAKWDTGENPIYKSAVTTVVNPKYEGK

[6] = target: AEA-DA lipid probe targets in Neuro2a cells (Mus musculus, UniProt P45377)
AEA-DA lipid probe targets in Neuro2a cells (Mus musculus, UniProt P45377), sequence (P45377 whole entry): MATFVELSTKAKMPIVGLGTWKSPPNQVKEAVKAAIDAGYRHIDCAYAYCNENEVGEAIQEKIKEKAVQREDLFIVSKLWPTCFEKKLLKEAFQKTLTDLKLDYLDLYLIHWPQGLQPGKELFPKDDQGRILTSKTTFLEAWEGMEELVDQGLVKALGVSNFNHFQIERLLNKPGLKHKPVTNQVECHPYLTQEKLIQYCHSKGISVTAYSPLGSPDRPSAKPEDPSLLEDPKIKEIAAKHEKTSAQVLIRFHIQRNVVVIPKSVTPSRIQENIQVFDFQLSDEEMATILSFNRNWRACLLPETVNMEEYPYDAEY

[7] = target: T4, AEA-DA lipid probe targets in Neuro2a cells (Mus musculus, UniProt Q8R2Y8)
T4 sequence (Q8R2Y8 1-181): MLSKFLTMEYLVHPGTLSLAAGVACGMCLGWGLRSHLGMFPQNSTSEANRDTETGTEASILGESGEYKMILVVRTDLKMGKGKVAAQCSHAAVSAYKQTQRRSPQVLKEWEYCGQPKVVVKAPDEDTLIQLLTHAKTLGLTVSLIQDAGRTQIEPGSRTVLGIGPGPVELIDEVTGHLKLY

[8] = target: T5, AEA-DA lipid probe targets in Neuro2a cells (Mus musculus, UniProt O70503); conditions: for SILAC ratio, HSD17B12 (Q53GQ0): Neuro2a cells, AEA-DA probe
T5 sequence (O70503 1-312): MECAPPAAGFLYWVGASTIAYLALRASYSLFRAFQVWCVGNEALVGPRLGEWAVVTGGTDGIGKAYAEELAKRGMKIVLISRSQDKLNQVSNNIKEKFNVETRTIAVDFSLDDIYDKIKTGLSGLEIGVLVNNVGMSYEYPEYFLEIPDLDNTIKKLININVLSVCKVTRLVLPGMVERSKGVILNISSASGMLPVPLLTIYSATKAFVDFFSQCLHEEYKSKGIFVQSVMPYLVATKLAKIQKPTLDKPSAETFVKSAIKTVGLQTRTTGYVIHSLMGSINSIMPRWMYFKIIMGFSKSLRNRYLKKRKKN

AEA-DA lipid probe targets in Neuro2a cells (Mus musculus, UniProt Q9R1P3), sequence (Q9R1P3 whole entry): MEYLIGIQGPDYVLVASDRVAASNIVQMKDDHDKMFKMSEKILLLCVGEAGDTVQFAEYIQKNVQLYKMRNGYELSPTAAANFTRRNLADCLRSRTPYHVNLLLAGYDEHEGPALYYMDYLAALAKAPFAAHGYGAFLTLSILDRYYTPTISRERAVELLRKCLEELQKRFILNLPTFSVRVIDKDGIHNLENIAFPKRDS

Compound: CCCCC/C=C\C/C=C\C/C=C\C/C=C\CCCC(=O)NCCO [AEA, anandamide, reference compound]
- SILAC ratio Psmb2 ([1]; competitor 200 μM): 1.3
- SILAC ratio, Scarb1 ([2]; competitor 200 μM): 1.6
- SILAC ratio Dhcr7 ([3]; competitor 200 μM): 1.5
- SILAC ratio, Rtn3 ([4]; competitor 200 μM): 2.7
- SILAC ratio Itgb1 ([5]; competitor 200 μM): 1.5
- SILAC ratio, Akr1b8 ([6]; competitor 200 μM): 7.7
- SILAC ratio Ptrh2 ([7]; competitor 200 μM): 1.5
- SILAC ratio, HSD17B12 (Q53GQ0) ([8]; competitor 200 μM): 2.2
- SILAC ratio, Hsd17b12 ([8]; competitor 200 μM): 2.2

Compound: O=C(/C=C/c1cccnc1)NCCCCC1CCN(C(=O)c2ccccc2)CC1 [FK-866, reference compound]
- SILAC ratio Psmb2 ([1]; competitor 25 μM): 1.7
- SILAC ratio, Scarb1 ([2]; competitor 25 μM): 2.3
- SILAC ratio Dhcr7 ([3]; competitor 25 μM): 0.9
- SILAC ratio, Rtn3 ([4]; competitor 25 μM): 1.1
- SILAC ratio, Akr1b8 ([6]; competitor 25 μM): 1.7
- SILAC ratio Ptrh2 ([7]; competitor 25 μM): 1.0
- SILAC ratio, HSD17B12 (Q53GQ0) ([8]; competitor 25 μM): 1.7
- SILAC ratio, Hsd17b12 ([8]; competitor 25 μM): 1.7

Compound: CN1CCN(C(=O)c2c(-c3ccccc3)c3cc([N+](=O)[O-])ccc3n2C)CC1 [KML110, (1-Methyl-5-nitro-3-phenyl-1H-indol-2-yl)(4-methylpiperazin-1-yl)methanone]
- SILAC ratio Psmb2 ([1]; competitor 25 μM): 1.7
- SILAC ratio, Scarb1 ([2]; competitor 25 μM): 2.8
- SILAC ratio Dhcr7 ([3]; competitor 25 μM): 1.2
- SILAC ratio, Rtn3 ([4]; competitor 25 μM): 1.3
- SILAC ratio Itgb1 ([5]; competitor 25 μM): 1.0
- SILAC ratio, Akr1b8 ([6]; competitor 25 μM): 3.1
- SILAC ratio Ptrh2 ([7]; competitor 25 μM): 1.0
- SILAC ratio, Hsd17b12 ([8]; competitor 25 μM): 1.7

Compound: CN1CCN(C(=O)c2[nH]c3ccc([N+](=O)[O-])cc3c2-c2ccccc2)CC1 [MJN228, (4-Methylpiperazin-1-yl)(5-nitro-3-phenyl-1H-indol-2-yl)methanone]
- SILAC ratio Psmb2 ([1]; competitor 10 μM): 1.3
- SILAC ratio Psmb2 ([1]; competitor 25 μM): 1.4
- SILAC ratio Psmb2 ([1]; competitor 50 μM): 1.2
- SILAC ratio Psmb2 ([1]; competitor 100 μM): 2.2
- SILAC ratio, Scarb1 ([2]; competitor 10 μM): 1.6
- SILAC ratio, Scarb1 ([2]; competitor 25 μM): 2.0
- SILAC ratio, Scarb1 ([2]; competitor 50 μM): 3.2
- SILAC ratio, Scarb1 ([2]; competitor 100 μM): 4.9
- SILAC ratio Dhcr7 ([3]; competitor 10 μM): 1.1
- SILAC ratio Dhcr7 ([3]; competitor 25 μM): 1.2
- SILAC ratio Dhcr7 ([3]; competitor 50 μM): 1.5
- SILAC ratio Dhcr7 ([3]; competitor 100 μM): 1.7
- SILAC ratio, Rtn3 ([4]; competitor 10 μM): 1.2
- SILAC ratio, Rtn3 ([4]; competitor 25 μM): 1.4
- SILAC ratio, Rtn3 ([4]; competitor 50 μM): 1.4
- SILAC ratio, Rtn3 ([4]; competitor 100 μM): 1.7
- SILAC ratio Itgb1 ([5]; competitor 10 μM): 1.2
- SILAC ratio Itgb1 ([5]; competitor 25 μM): 1.3
- SILAC ratio Itgb1 ([5]; competitor 50 μM): 1.1
- SILAC ratio Itgb1 ([5]; competitor 100 μM): 1.1
- SILAC ratio, Akr1b8 ([6]; competitor 25 μM): 1.9
- SILAC ratio, Akr1b8 ([6]; competitor 50 μM): 2.1
- SILAC ratio, Akr1b8 ([6]; competitor 100 μM): 2.7
- SILAC ratio Ptrh2 ([7]; competitor 10 μM): 1.1
- SILAC ratio Ptrh2 ([7]; competitor 25 μM): 1.0
- SILAC ratio Ptrh2 ([7]; competitor 50 μM): 1.2
- SILAC ratio Ptrh2 ([7]; competitor 100 μM): 1.1
- SILAC ratio, HSD17B12 (Q53GQ0) ([8]; competitor 25 μM): 1.6
- SILAC ratio, Hsd17b12 ([8]; competitor 10 μM): 1.2
- SILAC ratio, Hsd17b12 ([8]; competitor 25 μM): 1.6
- SILAC ratio, Hsd17b12 ([8]; competitor 50 μM): 1.7
- SILAC ratio, Hsd17b12 ([8]; competitor 100 μM): 2.3

Compound: C=CCN(C)CCCCCCOc1ccc(C(=O)c2ccc(Br)cc2)c(F)c1 [Ro 48-8071, reference compound]
- SILAC ratio Psmb2 ([1]; competitor 25 μM): 1.0
- SILAC ratio, Scarb1 ([2]; competitor 25 μM): 2.9
- SILAC ratio Dhcr7 ([3]; competitor 25 μM): 0.8
- SILAC ratio, Rtn3 ([4]; competitor 25 μM): 1.2
- SILAC ratio, Akr1b8 ([6]; competitor 25 μM): 1.4
- SILAC ratio Ptrh2 ([7]; competitor 25 μM): 0.9
- SILAC ratio, HSD17B12 (Q53GQ0) ([8]; competitor 25 μM): 0.9
- SILAC ratio, Hsd17b12 ([8]; competitor 25 μM): 0.9
